# Assay results published in US20090259043A1, “TRICYCLIC CYTOPROTECTIVE COMPOUNDS” (HUNTER-FLEMING LIMITED, priority 2005, published 2009).
# Tests used:
# [1] = tested on: organotypic hippocampal slice cultures; test: Neuroprotection against hypoxia in organotypic hippocampal slice cultures (PI fluorescence in CA1); type: cell-based, Wistar rat; settings: vs control (hypoxia only = 100% damage); 180 min hypoxia; compound present 45 min pre-hypoxia, during and 24 h post-hypoxia; PI fluorescence area in CA1
# Experimental: Organotypic hippocampal slice cultures were prepared using the basic method of Pringle et al [Brain Res. 755, 36-46 (1997)] modified as follows:
# Wistar rat pups (8-11 days old) were decapitated and the hippocampus rapidly dissected into ice-cold Gey's balanced salt solution supplemented with 4.5 mg/ml glucose. Slices were separated and plated onto Millicell CM culture inserts (4 per well) and maintained at 37° C./5% CO2 for 14 days. Maintenance medium consisted of 25% heat-inactivated horse serum, 25% Hank's balanced salt solution (HBSS) and 50% minimum essential medium with added Earle's salts (MEM) supplemented with 1 mM glutamine and 4.5 mg/ml glucose. Medium was changed every 3-4 days.
# Experimental hypoxia was performed as described previously (Pringle et al., Stroke 27, 21-24 (1996)& Brain Res. 755, 36-46 (1997)]. Briefly, cultures were transferred to serum free medium (SFM-75% MEM, 25% HBSS supplemented with 1 mM glutamine and 4.5 mg/ml glucose) containing 5 μg/ml of the fluorescent exclusion dye propidium iodide (PI). Cultures were allowed to equilibrate in SFM for 60 minutes prior to imaging. PI fluorescence was detected using a Leica DMIL inverted microscope fitted with a rhodamine filter set. Any cultures in which PI fluorescence was detected at this stage were excluded from further study. Hypoxia was induced by transferring cultures to SFM (+PI) which had been saturated with 95% N2/5% CO2. Culture plates (without lids) were then sealed into an airtight chamber in which the atmosphere was saturated with 95% N2/5% CO2 by continuously blowing through gas at 10 L/minute for ten minutes before being sealed and placed in the incubator for 170 minutes (total time of hypoxia was therefore 180 minutes). At the end of the hypoxic period cultures were returned to normoxic SFM containing PI and placed back in the incubator for 24 hours.
# Neuronal damage was assessed using ImageJ running on a PC. Images were captured using a CCD camera and saved for offline analysis. Light transmission images were captured prior to the addition of drugs, and PI fluorescence images recorded at the end of the 24-hour post-hypoxia recovery period. The area of the CA1 sub-region was determined from the transmission image. The area of PI fluorescence in the CA1 was measured using the threshold function on ImageJ, and neuronal damage expressed as the percentage of the CA1 in which PI fluorescence was detected above background.
# Unpaired Student's t-tests were employed to ascertain statistical significance.
# A series of compounds were examined for possible neuroprotection against hypoxia in organotypic hippocampal slice cultures. Compounds No. 4, 6, 7, 8, 10, 14, 15, 16, 17, 20, 21, 22 and 23 were dissolved in DMSO to a concentration of 1 mg/ml.
# 7β-hydroxy-epiandrosterone (7β-OH EPIA), a neuroprotective compound, at 100 nM concentrations, was employed as a positive control. A stock solution of 1 mg/ml was dissolved in ethanol. Final dilutions were made in SFM.
# The efficacy of all compounds was assessed using a pre-during and post-hypoxia paradigm—compounds were present in the medium 45 minutes pre-hypoxia, the 3 hours of hypoxia and 24 hours post-hypoxia.
melting point,SMILES,% damage in hypoxia model with compound [1]
158 to 161 °C,Cc1ccc(C)c2c3c([nH]c12)CCC(O)C3 (stereo not drawn),
228 to 230 °C,Cc1ccc(C)c2c3c([nH]c12)CC(C(=O)O)CC3 (stereo not drawn),
,"OC1CCc2[nH]c3ccccc3c2C1 (stereo not drawn) [Compound No. 4, 2,3,4,9-Tetrahydro-1H-carbazol-3-ol]",58%
,"c1ccc2c3c([nH]c2c1)CCC1(C3)OCCO1 [Compound No. 6, 1,2,4,9-Tetrahydro-spiro[carbazole-3,2′-[1,3-dioxolane]]",63%
,"O=C1CCc2[nH]c3ccccc3c2C1 [Compound No. 7, 1,2,4,9-Tetrahydro-3H-carbazol-3-one]",70%
,"O=C1CCc2[nH]c3ccccc3c21 [Compound No. 8, 3,4-dihydrocyclopenta[b]indol-1 (2H)-one]",59%
192 to 195 °C,"Cc1ccc2c3c([nH]c2c1C)CCC(O)C3 (stereo not drawn) [Compound No. 10, 7,8-Dimethyl-2,3,4,9-tetrahydro-1H-carbazol-3-ol]",76%
283 to 286 °C (dec.),"COc1ccc2[nH]c3c(c2c1)CS(=O)(=O)CC3 [Compound No. 12, 8-Methoxy-1,3,4,5-tetrahydrothiopyrano[43-b]indole 2,2-dioxide]",
,"O=C(O)c1ccc2[nH]c3c(c2c1)CCCC3=O [Compound No. 14, 1-Oxo-2,3,4,9-tetrahydro-1H-carbazole-6-carboxylic acid]",53%
,"COc1ccc2[nH]c3c(c2c1)CCC(C(=O)O)C3 (stereo not drawn) [Compound No. 15, 6-Methoxy-2,3,4,9-tetrahydro-11H-carbazole-2-carboxylic acid]",65%
128 to 130 °C,"COc1ccc2[nH]c3c(c2c1)CCC3 [Compound No. 17, 7-Methoxy-1,2,3,4-tetrahydrocyclopenta[b]indole]",35%
270 to 274 °C,"O=C(O)c1ccc2[nH]c3c(c2c1)CCC3 [Compound No. 18, 1,2,3,4-Tetrahydrocyclopenta[b]indole-7-carboxylic acid]",
,"O/N=C1\CCCc2[nH]c3ccccc3c21 [Compound No. 20, (4E)-1,2,3,9-Tetrahydro-4H-carbazol-4-one oxime]",54%
173 to 175 °C (dec.),"O/N=C1\CCc2[nH]c3ccccc3c2C1 [Compound No. 21, (3E)-1,2,4,9-Tetrahydro-3H-carbazol-3-one oxime]",40%
,"COc1ccc2[nH]c3c(c2c1)CCCC3 [compound 16, Methyl 2,3,4,9-tetrahydro-1H-carbazol-6-yl ether]",60%
,"COc1ccc2[nH]c3c(c2c1)CC(=O)CC3 [compound 23, 6-Methoxy-1,2,4,9-tetrahydro-3H-carbazol-3-one]",57%

SMILES,melting point,% damage in hypoxia model with compound [1]
COc1ccc2[nH]c3c(c2c1)CC1(CC3)OCCO1 [Compound No. 22],168 to 169 °C,75%
